Assays:
[1] = VSRRR quantitation in mouse plasma by LC/SIM/MS after intravenous dosing; assay type: in vivo; settings: IV single dose 0.8 mg/kg
Protocol: The amount of the ApoE mimetic peptide VSRRR (SEQ ID NO:4) in blood plasma and CNS was determined as follows:
VSRRR Quantitation in Mouse Plasma Using LC/Selected Ion Monitoring (SIM)/MS
48 μL aliquots of mouse plasma were measured into the wells of a 2 mL 96-well plate. 6 μL of a stable isotope labeled (SIL) form of the VSRRR peptide (“VSRRR[10]”; SEQ ID NO:4) (5 picomoles/μL in 50 mM ammonium bicarbonate, pH 8, buffer) was added. 6 μL of a synthetic form of the VSRRR peptide (“VSRRR”; SEQ ID NO:4) in 50 mM Ammonium bicarbonate was added for standards and quality controls (QCs) and an equivalent volume of 50 mM ammonium bicarbonate was added to all wells containing mouse PK samples. 1140 μL of 50 mM ammonium formate, pH 10, was added for a final volume of 1200 μL. Salts and proteins were removed using OASIS® HLB Solid Phase Extraction (SPE) protocol as follows: • 1. 500 μL methanol (MeOH) through each well×1. • 2. 500 μL 25% acetonitrile (ACN)/1% trifluoroacetic acid (TFA)×1 (as pre-elution). • 3. 500 μL MeOH×1 • 4. 500 μL 50 mM ammonium formate×2 • 5. 1 mL of each sample mixture was pipetted directly onto an OASIS® HLB plate (hydrophilic-lipophilic-balanced reversed-phase sorbent; Waters Corp.) into a corresponding well and slowly vacuumed through • 6. 500 μL 50 mM ammonium formate×1 • 7. 500 μL 10% ACN/50 mM ammonium formate×2 • 8. 500 μL 25% ACN/50 mM ammonium formate×1 • 9. Removed plate collecting washes/flowthrough, and put in collection plate • 10. Eluted with 100 μL 25% ACN/1% TFA×3, eluting with vacuum slowly. The final eluate should be approximately 300 μL.
The SPE eluate was dried using a vacuum centrifuge. The sample was reconstituted in 50 μL of buffer containing 1% acetonitrile (ACN), 0.1% trifluoroacetic acid (TFA), and 0.02% heptafluorobutyric acid (HFBA). Two microliters of reconstituted sample was analyzed by nanoscale capillary LC coupled to a high resolution, accurate mass tandem mass spectrometer. Specifically, the electrospray ionization source with NanoLockSpray™ (Waters Corp.) and nanoAcquity UPLC® system (Waters Corp.) were used with a nanoscale LC column (1.7 μm BEH130 C18 150 μm ID×100 mm long; Waters Corp.), 10-min gradient of 3% to 19% ACN with 0.1% formic acid (mobile phase A=0.1% formic acid/0.001% HFBA) with a total LC run time of 16.5 minutes, flow rate=1.8 μL/min and 35° C. column temperature. A SYNAPT™ G1 HDMS™ high resolution mass spectrometer (Waters Corp.) was used. Full Scan MS data was obtained over the mass region of 50-4000 Da using an Enhanced Duty Cycle scan function at 360 Da.
VSRRR and VSRRR[10] amounts were quantitated by measuring the area under the curve (AUC) of the Selected Ion Chromatograms of the doubly charged ions at high resolution (m/z 357.7 and 362.7). The final VSRRR quantitation amount was determined using the ratio of the AUCs (VSRRR/VSRRR[10]). The ratios from 5 animals were averaged per time point and calibration standards were used to generate a standard curve. Duplicate aliquots of QC samples were analyzed by LC/MS in triplicate to determine analytical reproducibility.
The lower level of quantitation (LLOQ) is indicated.

[2] = tested on: mice with intracerebral hemorrhage; experiment: Rotorod vestibulomotor function after intracerebral hemorrhage (collagenase injection); assay type: in vivo, mouse; settings: 0.05 mg/kg iv at 2 h and 6 h after intracerebral hemorrhage
Protocol: An experimental murine model for intracerebral hemorrhage was also provided. James, et al. (2009) Stroke, 40:632-39. Male mice (age 16-20 weeks) were anesthetized with 4.6% isoflurane in oxygen in an anesthesia induction box for 90 seconds. The trachea was intubated and the lungs mechanically ventilated with 1.6% isoflurane in a 70/30 mixture of nitrogen/oxygen. Body temperature was maintained at 37° C. using an underbody warming system. The animal's head was secured in a stereotactic frame, local anesthetic was injected, and the scalp incised. […]
An experimental procedure for measuring neurological deficits was developed. […] The average time to fall from the rotating cylinder in the latter three trials was recorded as baseline latency. […] Average latency to fall from the rod was recorded, and mice unable to grip the rod were scored with a latency of 0 seconds.
Groups of mice received either an ApoE mimetic peptide (SEQ ID NO:4; 0.05 mg/kg) or carrier (saline) by intravenous tail vein injection a 2 hours and again at 6 hours after intracerebral hemorrhage induced as described in Example 3. Each mouse was tested for vestibulomotor function by rotorod latency measured before and after induced intracerebral hemorrhage as described in Example 3.

With Ac-VSRRR-NH2 [VR-55, Ac-VSRRR-NH2] the “Ratio Light/Heavy across 5 animals” value ([1]; 1 min) was 0.079, the “amount of peptide in plasma” value ([1]; 1 min) was 32.2 fmol/µL and the “Ratio Light/Heavy across 5 animals” value ([1]; 3 min) was 0.134. The “amount of peptide in plasma” value ([1]; 3 min) was 51.8 fmol/µL, the “Ratio Light/Heavy across 5 animals” value ([1]; 5 min) was 0.077 and the “amount of peptide in plasma” value ([1]; 5 min) was 31.7 fmol/µL. For the same substance, the “Ratio Light/Heavy across 5 animals” value ([1]; 10 min) was 0.058, the “amount of peptide in plasma” value ([1]; 10 min) was 24.9 fmol/µL and the “Ratio Light/Heavy across 5 animals” value ([1]; 15 min) was 0.044. For the same substance, the “amount of peptide in plasma” value ([1]; 15 min) was 19.6 fmol/µL, the “Ratio Light/Heavy across 5 animals” value ([1]; 30 min) was 0.016 and the “amount of peptide in plasma” value ([1]; 30 min) was 9.9 fmol/µL. For the same substance, the “Ratio Light/Heavy across 5 animals” value ([1]; 60 min) was 0.012, the “amount of peptide in plasma” value ([1]; 60 min) was 8.5 fmol/µL and the “durability of effect on rotorod latency” value [2] was “durable through the five-day testing period”. The “vestibulomotor performance (rotorod latency) compared to carrier” value ([2]; FIG. 5) was “improved vestibulomotor performance”.

Source: patent US12071469B2, “Peptide compounds for suppressing inflammation” (Duke University, priority 2011, dated 2024)
